System: 521955-158-R2-J5-PDC complex spheroids, viability
Experiment: Anticancer human tumor 521955-158-R2-J5-PDC patient-derived pancreatic carcinoma cell line growth inhibition [RAS]
Details: for IC50: curve of first compound; for viability, T/C: stronger effect = lower value; active means viability on the fitted dose curve at most 10% of control; inactive means the rest
Procedure, shortened: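 Multi-cell-type spheroids: tumor cells plus HUVEC endothelial cells and mesenchymal stem cells. RAS-pathway inhibitors were combined with targeted agents, each dosed in half-log steps down from clinical Cmax, or from 10 microM when Cmax was unknown.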

[1] = second compound 0.000949 µM, first compound 0.0316 µM
[2] = second compound 0.000949 µM, first compound 0.1 µM
[3] = second compound 0.000949 µM, first compound 0.316 µM
[4] = second compound 0.000949 µM, first compound 1 µM
[5] = second compound 0.000949 µM, first compound 3.16 µM
[6] = second compound 0.000949 µM, first compound 10 µM
[7] = second compound 0.003 µM, first compound 0.0316 µM
[8] = second compound 0.003 µM, first compound 0.1 µM
[9] = second compound 0.003 µM, first compound 0.316 µM
[10] = second compound 0.003 µM, first compound 1 µM
[11] = second compound 0.003 µM, first compound 3.16 µM
[12] = second compound 0.003 µM, first compound 10 µM
[13] = second compound 0.00949 µM, first compound 0.0316 µM
[14] = second compound 0.00949 µM, first compound 0.1 µM
[15] = second compound 0.00949 µM, first compound 0.316 µM
[16] = second compound 0.00949 µM, first compound 1 µM
[17] = second compound 0.00949 µM, first compound 3.16 µM
[18] = second compound 0.00949 µM, first compound 10 µM
[19] = second compound 0.03 µM, first compound 0.0316 µM
[20] = second compound 0.03 µM, first compound 0.1 µM
[21] = second compound 0.03 µM, first compound 0.316 µM
[22] = second compound 0.03 µM, first compound 1 µM
[23] = second compound 0.03 µM, first compound 3.16 µM
[24] = second compound 0.03 µM, first compound 10 µM
[25] = second compound 0.0949 µM, first compound 0.0316 µM
[26] = second compound 0.0949 µM, first compound 0.1 µM
[27] = second compound 0.0949 µM, first compound 0.316 µM
[28] = second compound 0.0949 µM, first compound 1 µM
[29] = second compound 0.0949 µM, first compound 3.16 µM
[30] = second compound 0.0949 µM, first compound 10 µM
[31] = second compound 0.3 µM, first compound 0.0316 µM
[32] = second compound 0.3 µM, first compound 0.1 µM
[33] = second compound 0.3 µM, first compound 0.316 µM
[34] = second compound 0.3 µM, first compound 1 µM
[35] = second compound 0.3 µM, first compound 3.16 µM
[36] = second compound 0.3 µM, first compound 10 µM
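Further: compound exposure lasted seven days before the viability read.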
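Wherever viability, T/C is given: spheroids also contain HUVEC endothelial cells and mesenchymal stem cells as stroma.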

CC(C)NCC(C(=O)N1CCN(c2ncnc3c2C(C)CC3O)CC1)c1ccc(Cl)cc1 (stereo unspecified) + CCn1c(-c2cc(N3CCN(C)CC3)cnc2C(C)OC)c2c3cc(ccc31)-c1csc(n1)CC(NC(=O)C1CC1C)C(=O)N1CCCC(N1)C(=O)OCC(C)(C)C2
inactive: viability, T/C [1] 33.8% | viability, T/C [2] 38.8% | viability, T/C [3] 35.5% | viability, T/C [4] 23% | viability, T/C [5] 15.5% | viability, T/C [6] 18.1% | viability, T/C [7] 41.8% | viability, T/C [8] 37% | viability, T/C [9] 36% | viability, T/C [10] 15% | viability, T/C [11] 6.94% | viability, T/C [13] 38.7% | viability, T/C [14] 33.9% | viability, T/C [15] 28% | viability, T/C [16] 8.72% | viability, T/C [19] 20.9% | viability, T/C [20] 21.9% | viability, T/C [21] 16.6% | viability, T/C [25] 11.8% | viability, T/C [26] 13.1% | viability, T/C [31] 10.5%
< 31.6 nM: IC50 (second compound 0.000949 µM) | IC50 (second compound 0.003 µM) | IC50 (second compound 0.00949 µM) | IC50 (second compound 0.03 µM) | IC50 (second compound 0.0949 µM) | IC50 (second compound 0.3 µM)
active: viability, T/C [12] 11.1% | viability, T/C [17] 4.36% | viability, T/C [18] 7.59% | viability, T/C [22] 5.37% | viability, T/C [23] 5.01% | viability, T/C [24] 1.08% | viability, T/C [27] 8.25% | viability, T/C [28] 4.84% | viability, T/C [29] 4.83% | viability, T/C [30] 1.9% | viability, T/C [32] 11% | viability, T/C [33] 8.33% | viability, T/C [34] 2.49% | viability, T/C [35] 4.32% | viability, T/C [36] 1.07%

CC(C)n1nc(-c2ccc3oc(N)nc3c2)c2c(N)ncnc21 + CCn1c(-c2cc(N3CCN(C)CC3)cnc2C(C)OC)c2c3cc(ccc31)-c1csc(n1)CC(NC(=O)C1CC1C)C(=O)N1CCCC(N1)C(=O)OCC(C)(C)C2
inactive: viability, T/C (second compound 0.000949 µM, first compound 0.000316 µM) 38.5% | viability, T/C (second compound 0.000949 µM, first compound 0.001 µM) 40.2% | viability, T/C (second compound 0.000949 µM, first compound 0.00316 µM) 37.6% | viability, T/C (second compound 0.000949 µM, first compound 0.01 µM) 39.8% | viability, T/C [1] 22.7% | viability, T/C [2] 21.2% | viability, T/C (second compound 0.003 µM, first compound 0.000316 µM) 34.6% | viability, T/C (second compound 0.003 µM, first compound 0.001 µM) 38.8% | viability, T/C (second compound 0.003 µM, first compound 0.00316 µM) 28.7% | viability, T/C (second compound 0.003 µM, first compound 0.01 µM) 22.6% | viability, T/C [7] 11.2% | viability, T/C (second compound 0.00949 µM, first compound 0.000316 µM) 31.3% | viability, T/C (second compound 0.00949 µM, first compound 0.001 µM) 30.2% | viability, T/C (second compound 0.00949 µM, first compound 0.00316 µM) 34.9% | viability, T/C (second compound 0.00949 µM, first compound 0.01 µM) 21.4% | viability, T/C [13] 14.2% | viability, T/C (second compound 0.03 µM, first compound 0.000316 µM) 25.3% | viability, T/C (second compound 0.03 µM, first compound 0.001 µM) 22% | viability, T/C (second compound 0.03 µM, first compound 0.00316 µM) 20.4% | viability, T/C (second compound 0.03 µM, first compound 0.01 µM) 17.9% | viability, T/C [19] 11.7% | viability, T/C (second compound 0.0949 µM, first compound 0.000316 µM) 11.8% | viability, T/C (second compound 0.0949 µM, first compound 0.001 µM) 11% | viability, T/C (second compound 0.0949 µM, first compound 0.00316 µM) 15.8% | viability, T/C (second compound 0.0949 µM, first compound 0.01 µM) 12.2% | viability, T/C (second compound 0.3 µM, first compound 0.000316 µM) 9.8%
active: viability, T/C [8] 7.9% | viability, T/C [14] 6.83% | viability, T/C [20] 6.04% | viability, T/C [25] 10% | viability, T/C [26] 3.64% | viability, T/C (second compound 0.3 µM, first compound 0.001 µM) 10.4% | viability, T/C (second compound 0.3 µM, first compound 0.00316 µM) 7.93% | viability, T/C (second compound 0.3 µM, first compound 0.01 µM) 7.87% | viability, T/C [31] 6.76% | viability, T/C [32] 3.75%
< 0.316 nM: IC50 (second compound 0.000949 µM) | IC50 (second compound 0.003 µM) | IC50 (second compound 0.00949 µM) | IC50 (second compound 0.03 µM) | IC50 (second compound 0.0949 µM) | IC50 (second compound 0.3 µM)

C[C@@H](NC(=O)c1ncnc(N)c1Cl)c1ncc(C(=O)Nc2cc(C(F)(F)F)c(Cl)cn2)s1 + CCn1c(-c2cc(N3CCN(C)CC3)cnc2C(C)OC)c2c3cc(ccc31)-c1csc(n1)CC(NC(=O)C1CC1C)C(=O)N1CCCC(N1)C(=O)OCC(C)(C)C2
< 31.6 nM: IC50 (second compound 0.000949 µM) | IC50 (second compound 0.003 µM) | IC50 (second compound 0.00949 µM) | IC50 (second compound 0.03 µM) | IC50 (second compound 0.0949 µM) | IC50 (second compound 0.3 µM)
inactive: viability, T/C [1] 49.2% | viability, T/C [2] 50.3% | viability, T/C [3] 50.4% | viability, T/C [4] 48.9% | viability, T/C [5] 51.3% | viability, T/C [6] 49% | viability, T/C [7] 39.9% | viability, T/C [8] 39.5% | viability, T/C [9] 45.2% | viability, T/C [10] 38.9% | viability, T/C [11] 47.9% | viability, T/C [12] 40.7% | viability, T/C [13] 39.9% | viability, T/C [14] 34.2% | viability, T/C [15] 40.8% | viability, T/C [16] 37% | viability, T/C [17] 36.4% | viability, T/C [18] 38.7% | viability, T/C [19] 26.9% | viability, T/C [20] 29.7% | viability, T/C [21] 31% | viability, T/C [22] 22.4% | viability, T/C [23] 29.2% | viability, T/C [24] 21.6% | viability, T/C [25] 11.8% | viability, T/C [26] 12.6% | viability, T/C [27] 18.7% | viability, T/C [28] 16.8% | viability, T/C [29] 17.8% | viability, T/C [30] 17.8% | viability, T/C [31] 11.7% | viability, T/C [32] 13.2% | viability, T/C [33] 13.5% | viability, T/C [34] 12.4% | viability, T/C [35] 15.2% | viability, T/C [36] 12.3%
